Assay results from patent publication US20260008775A1, “AZOLE MODULATORS OF CHOLESTEROL BIOSYNTHESIS AND THEIR USE FOR PROMOTING REMYELINATION” (GENENTECH, INC., priority 2022, published 2026).

Experiments:
[1] = test system: zymostenol accumulation (EBP) in EpiSC-derived OPCs; test: GC/MS-based sterol profiling, zymostenol accumulation in EpiSC-derived OPCs; format: cell-based, mouse; details: Mus musculus, 24 h, EpiSC-derived OPCs, 24 hr, 8 doses from 0.15 nM to 333 nM; read-out: Mouse Zymostenol GCMS EC50
In short: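 Mouse epiblast stem cell-derived OPCs plated at 100,000 cells/well in growth-factor-free N2B27 and treated 24 h. Sterols extracted by modified Folch wash, silylated with BSTFA, and quantified by electron-impact GC/MS against cholesterol-d7 (zymostenol ion 458). Zymostenol normalised to 24 h 100 nM positive-control reference.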

[2] = test system: EpiSC-derived OPCs; test: In vitro phenotypic screening of OPCs, MBP high-content imaging (percentage of oligodendrocytes); format: cell-based, mouse; details: Mus musculus, 72 h, 3 days, MBP stain, dose-response 0.5 nM to 1000 nM; read-out: OPC EC50
In short: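 Mouse epiblast stem cell-derived OPCs were plated without growth factors and given 8-point doses (1000 nM to 0.5 nM, 0.1% DMSO final) for 3 days at 37 °C. MBP/DAPI immunostaining and high-content imaging gave the percentage of oligodendrocytes. EC50 came from a Hill-equation fit.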

[3] = molecular target: human emopamil binding protein and human 7-dehydrocholesterol reductase (hEBP-DHCR7) (Homo sapiens (Human), UniProt Q15125); test: hEBP-DHCR7 radioligand binding assay (filter binding, membranes of co-expressing HEK293 cells); details: competition with [3H] radioligand, 8 doses 0.06 to 5000 nM, Ki calculated from IC50
In short: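 Membranes from HEK293 cells transiently co-expressing hEBP and DHCR7 (10 μg/well) were incubated for 3 h at 22 °C with tritiated spiro-sulfone radioligand (added at 25 nM) and compound at 1 μM or 0.06–5000 nM. Filtration and scintillation counting followed. Inhibition was normalised to 5 μM unlabelled ligand and DMSO, and Ki was derived as IC50/(1+[L]/Kd).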

Sequence of human emopamil binding protein and human 7-dehydrocholesterol reductase (hEBP-DHCR7) (Q15125 whole entry): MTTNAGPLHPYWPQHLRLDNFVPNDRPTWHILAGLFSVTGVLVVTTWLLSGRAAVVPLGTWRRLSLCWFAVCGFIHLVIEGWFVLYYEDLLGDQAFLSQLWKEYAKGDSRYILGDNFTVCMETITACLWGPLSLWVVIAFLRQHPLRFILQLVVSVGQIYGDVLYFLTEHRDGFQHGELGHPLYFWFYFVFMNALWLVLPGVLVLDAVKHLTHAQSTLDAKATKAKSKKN

| SMILES | EC50 [1] [nM] | EC50 [2] [nM] | Ki [3] [nM] |
| --- | --- | --- | --- |
| CC(C)n1nc(-c2cccc(C(F)(F)F)n2)nc1[C@H]1[C@@H]2C[C@@H](N3CCOC[C@H]3C)C[C@@H]21 [Compound 72, (R)-4-((1R,3s,5S,6R)-6-(1-Isopropyl-3-(6-(trifluoromethyl)pyridin-2-yl)-1H-1,2,4-triazol-5-yl)bicyclo[3.1.0]hexan-3-yl)-3-methylmorpholine] | 333 | 980 | 1170 |
| CC(C)n1nc(-c2cccc(C(F)(F)F)n2)nc1[C@H]1[C@@H]2C[C@H](N3CCOC[C@H]3C)C[C@@H]21 [Compound 73, (R)-4-((1R,3r,5S,6R)-6-(1-isopropyl-3-(6-(trifluoromethyl)pyridin-2-yl)-1H-1,2,4-triazol-5-yl)bicyclo[3.1.0]hexan-3-yl)-3-methylmorpholine] | 3.95 | 8.41 | 109 |
| CC(C)n1nc(-c2cccc(OC(F)F)c2)nc1[C@H]1[C@@H]2C[C@H](N3CCOC[C@H]3C)C[C@@H]21 [Compound 76, (R)-4-((1R,3r,5S,6R)-6-(3-(3-(Difluoromethoxy)phenyl)-1-isopropyl-1H-1,2,4-triazol-5-yl)bicyclo[3.1.0]hexan-3-yl)-3-methylmorpholine] | 1.18 | 1.56 | 15 |
| COCCN1CCN([C@H]2CC[C@@H](c3nc(-c4ccc(C(F)(F)F)nc4)nn3C(C)C)C2)CC1 [Compound 83, 1-((1S,3R)-3-(1-Isopropyl-3-(6-(trifluoromethyl)pyridin-3-yl)-1H-1,2,4-triazol-5-yl)cyclopentyl)-4-(2-methoxyethyl) piperazine] | 12.5 | 78.4 | 10.9 |
| CC(C)n1nc(-c2cnc(C(F)(F)F)nc2)nc1[C@H]1CC[C@@H](N2CCOCC2)C1 [Compound 95, 4-((1R,3S)-3-(1-Isopropyl-3-(2-(trifluoromethyl)pyrimidin-5-yl)-1H-1,2,4-triazol-5-yl)cyclopentyl)morpholine] | 20.3 | 136 | 33.3 |
| CC(C)n1nc(-c2cnc(C(F)(F)F)nc2)cc1[C@H]1[C@@H]2C[C@H](N3CCOC[C@H]3C)C[C@@H]21 [Compound 97, (R)-4-((1R,3r,5S,6R)-6-(1-Isopropyl-3-(2-(trifluoromethyl)pyrimidin-5-yl)-1H-pyrazol-5-yl)bicyclo[3.1.0]hexan-3-yl)-3-methylmorpholine] | 3.87 | 11.4 | 15.1 |
| CC(C)n1nc(-c2ccnc(C(F)(F)F)n2)cc1[C@H]1[C@@H]2C[C@@H](N3CCOCC3)C[C@@H]21 [Compound 98, 4-((1R,3s,5S,6r)-6-(1-Isopropyl-3-(2-(trifluoromethyl)pyrimidin-4-yl)-1H-pyrazol-5-yl)bicyclo[3.1.0]hexan-3-yl)morpholine] | 4.86 | 30.8 | 11.7 |
| CC(C)n1nc(-c2ccnc(C(F)(F)F)n2)cc1[C@H]1[C@@H]2C[C@H](N3CCOC[C@@H]3C)C[C@@H]21 [Compound 101, (S)-4-((1R,3r,5S,6S)-6-(1-Isopropyl-3-(2-(trifluoromethyl)pyrimidin-4-yl)-1H-pyrazol-5-yl)bicyclo[3.1.0]hexan-3-yl)-3-methylmorpholine] | 1.1 | 2.02 | 7.22 |
| CC(C)n1nc(-c2ccnc(C(F)(F)F)n2)cc1[C@H]1[C@@H]2C[C@H](N3CCOC[C@H]3C)C[C@@H]21 [Compound 103, (R)-4-((1R,3r,5S,6S)-6-(1-Isopropyl-3-(2-(trifluoromethyl)pyrimidin-4-yl)-1H-pyrazol-5-yl)bicyclo[3.1.0]hexan-3-yl)-3-methylmorpholine] | 9.34 | 93.4 | 36.1 |
| CC(C)n1nc(-c2ccc(C(F)(F)F)nc2)nc1[C@@H]1CC[C@@H](N2CCOCC2)C1 [Compound 104, 4-((1R,3R)-3-(1-Isopropyl-3-(6-(trifluoromethyl)pyridin-3-yl)-1H-1,2,4-triazol-5-yl)cyclopentyl)morpholine] | 52 | 433 | 19.2 |
| CC(C)n1nc(-c2ccc(C(F)(F)F)nc2)nc1[C@@H]1CC[C@H](N2CCOCC2)C1 [Compound 105, 4-((1S,3R)-3-(1-Isopropyl-3-(6-(trifluoromethyl)pyridin-3-yl)-1H-1,2,4-triazol-5-yl)cyclopentyl)morpholine] | 3.15 | 11.7 | 8.89 |
| CC(C)n1nc(-c2cc(C(F)(F)F)ncn2)cc1[C@H]1[C@@H]2C[C@H](N3CCOC[C@H]3C)C[C@@H]21 [Compound 106, (R)-4-((1R,3r,5S,6R)-6-(1-Isopropyl-3-(6-(trifluoromethyl)pyrimidin-4-yl)-1H-pyrazol-5-yl)bicyclo[3.1.0]hexan-3-yl)-3-methylmorpholine] | 3.87 | 11.4 | 15.1 |
| CC(C)n1nc(-c2cncc(C(F)(F)F)n2)cc1[C@H]1[C@@H]2C[C@@H](N3CCOCC3)C[C@@H]21 [Compound 107, 4-((1R,3s,5S,6r)-6-(1-Isopropyl-3-(6-(trifluoromethyl)pyrazin-2-yl)-1H-pyrazol-5-yl)bicyclo[3.1.0]hexan-3-yl)morpholine] | 4.86 | 30.8 | 11.7 |
| CC(C)n1nc(-c2cncc(C(F)(F)F)c2)nc1[C@H]1[C@@H]2C[C@H](N3CCOC[C@H]3C)C[C@@H]21 [Compound 120, (R)-4-((1R,3r,5S,6R)-6-(1-Isopropyl-3-(5-(trifluoromethyl)pyridin-3-yl)-1H-1,2,4-triazol-5-yl)bicyclo[3.1.0]hexan-3-yl)-3-methylmorpholine] | 1.25 | 2.8 | 16 |
| CC[C@@H]1CN([C@@H]2CC[C@H](c3nc(-c4ccc(C(F)(F)F)nc4)nn3C(C)C)C2)CCO1 [Compound 127, (R)-2-Ethyl-4-((1R,3S)-3-(1-isopropyl-3-(6-(trifluoromethyl)pyridin-3-yl)-1H-1,2,4-triazol-5-yl)cyclopentyl)morpholine] | 1.32 | 6 | 57.1 |
| CC(C)n1nc(-c2cnc(C(F)(F)F)nc2)nc1[C@H]1CC[C@@H](N2CCO[C@H](C)C2)C1 [Compound 144, (R)-4-((1R,3S)-3-(1-isopropyl-3-(2-(trifluoromethyl)pyrimidin-5-yl)-1H-1,2,4-triazol-5-yl)cyclopentyl)-2-methylmorpholine] | 5.7 | 48 | 325 |
| CC[C@@H]1CN([C@H]2CC[C@@H](c3nc(-c4cnc(C(F)(F)F)nc4)nn3C(C)C)C2)CCO1 [Compound 152, (R)-2-Ethyl-4-((1S,3R)-3-(1-isopropyl-3-(2-(trifluoromethyl)pyrimidin-5-yl)-1H-1,2,4-triazol-5-yl)cyclopentyl)morpholine] | 2.14 | 17 | 3420 |
| CC(C)n1nc(-c2ccc(C(F)(F)F)c(F)c2)nc1[C@H]1CC[C@@H](N2CCO[C@H](CF)C2)C1 [Compound 160, (S)-4-((1R,3S)-3-(3-(3-Fluoro-4-(trifluoromethyl)phenyl)-1-isopropyl-1H-1,2,4-triazol-5-yl)cyclopentyl)-2-(fluoromethyl)morpholine] | 1.03 | 32.7 | 32.7 |
| CC(C)n1nc(-c2cnc(C(F)(F)F)nc2)nc1[C@H]1CC[C@@H](N2CCO[C@H](CF)C2)C1 [Compound 161, (S)-2-(Fluoromethyl)-4-((1R,3S)-3-(1-isopropyl-3-(2-(trifluoromethyl)pyrimidin-5-yl)-1H-1,2,4-triazol-5-yl)cyclopentyl)morpholine] | 24 | 89.3 | 89.3 |
| CC(C)n1nc(-c2cncc(C(F)(F)F)c2)nc1[C@H]1[C@@H]2C[C@@H](N3CCO[C@H](C)C3)C[C@@H]21 [Compound 162, (R)-4-((1R,3s,5S,6R)-6-(1-Isopropyl-3-(5-(trifluoromethyl)pyridin-3-yl)-1H-1,2,4-triazol-5-yl)bicyclo[3.1.0]hexan-3-yl)-2-methylmorpholine] | 371 | 838 | 838 |
| CC(C)n1nc(-c2cncc(C(F)(F)F)c2)nc1[C@H]1[C@@H]2C[C@H](N3CCO[C@H](C)C3)C[C@@H]21 [Compound 163, (R)-4-((1R,3r,5S,6R)-6-(1-Isopropyl-3-(5-(trifluoromethyl)pyridin-3-yl)-1H-1,2,4-triazol-5-yl)bicyclo[3.1.0]hexan-3-yl)-2-methylmorpholine] | 4.36 | 32.8 | 32.8 |
| CC(C)n1nc(-c2cccc(C(F)(F)F)c2)cc1[C@H]1[C@@H]2C[C@H](N3CCOCC3)C[C@@H]21 [Compound 170, 4-((1R,3r,5S,6r)-6-(1-Isopropyl-3-(3-(trifluoromethyl)phenyl)-1H-pyrazol-5-yl)bicyclo[3.1.0]hexan-3-yl)morpholine] | 2.98 | 5.33 | 6.87 |
| CC(C)n1nc(-c2ccnc(C(F)(F)F)c2)cc1[C@H]1[C@@H]2C[C@H](N3CCOCC3)C[C@@H]21 [Compound 172, 4-((1R,3r,5S,6r)-6-(1-Isopropyl-3-(2-(trifluoromethyl)pyridin-4-yl)-1H-pyrazol-5-yl)bicyclo[3.1.0]hexan-3-yl)morpholine] | 4 | 8.27 | 13.4 |
